Reference: PubChem BioAssay AID1845211 (Molecular Pharmacology Branch, DTP, NCI, 2023)

Test system: NCI-H322M multicellular tumor spheroids, viability (% test/control)
Assay: Anticancer human tumor NCI-H322M cell line growth inhibition;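 on viability, T/C: spheroids exposed to compound for seven days before readout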
Conditions: for IC50: curve of first compound; for viability, T/C: stronger effect = lower value
Source text: Multicellular complex tumor spheroid response to DNA repair inhibitors in combination with DNA-damaging drugs
This study explores the anticancer activities of DNA-damaging drugs and inhibitors of DNA damage repair, both as single agents and in combinations. Complex tumor spheroids comprised of malignant cells, endothelial cells and mesenchymal stem cells served as an in vitro model for human solid tumors. This model system incorporates physiologically relevant features and patient-derived or established malignant cell lines with clinically relevant genetic alterations from many tumor types. Twenty-six patient-derived or established malignant cell lines were evaluated representing sarcoma, melanoma, small cell lung cancer (SCLC), non-small cell lung cancer (NSCLC), as well as bladder, ovarian and pancreatic cancers. The concentration ranges selected for each drug and investigational agent were based upon clinically achievable concentrations if the clinical Cmax of the agent was known.
Compounds. The drugs and compounds olaparib (NSC753686), talazoparib (NSC767125), berzosertib (NSC777718), elimusertib (NSC800525), nedisertib (NSC802822), VX-984 (NSC792969), AZD-1390 (NSC803789), temozolomide (NSC362856), topotecan (NSC609699), trabectedin (NSC813783), staurosporine (NSC755774), and gemcitabine (NSC613327) were obtained from the National Cancer Institute (NCI) Developmental Therapeutics Program Chemical Repository. The FDA-approved anticancer drug set is available from the Developmental Therapeutics Program at https://dtp.cancer.gov/organization/dscb/obtaining/available_plates.htm. […] The stock solutions were prepared in dimethyl sulfoxide (DMSO, Sigma-Aldrich, St. Louis, MO, cat. D2650) at 400-fold the tested concentration and stored at -70 degrees C. Prior to their use, the stock solutions were diluted in fresh medium and the final DMSO concentration in the assay was 0.25% (v/v). All drugs and investigational agents were tested over a range starting from a high concentration at or near the clinical Cmax and decreasing in half-log increments. If the clinical Cmax for an agent had not been determined, the highest concentration tested was 10 microM.
Cell Lines. The patient-derived cancer cell (PDC) lines: 156681-154-R-J1-PDC, 283228-195-R-J1-PDC, 287954-098-R-J1-PDC, 292921-168-R-J2-PDC, 349418-098-R-PDC, 425362-245-T-J1-PDC, 556581-035-R-J1-PDC, and BL0293-F563-PDC were received from the NCI Patient-Derived Models Repository (PDMR, https://pdmr.cancer.gov). The established cell lines HS-SY-2 (RRID:CVCL_8719), MPNST, and SYO-1 (RRID:CVCL_7146) were obtained from the Sloan Kettering Institute. The alveolar soft parts sarcoma cell line ASPS-1 (RRID:CVCL_S738) was established at the NCI and grown from internal seed stocks. The following established cell lines were purchased from the American Type Culture Collection (ATCC, Manassas, VA): G-401 (ATCC, cat. CRL-1441, RRID:CVCL_0270), SW982 (ATCC, cat. HTB-93, RRID:CVCL_1734), VA-ES-BJ (ATCC, cat. CRL-2138, RRID:CVCL_1785), NCI-H719 (ATCC, cat. CRL-5837, RRID:CVCL_1582), NCI-H196 (ATCC, cat. CRL-5823, RRID:CVCL_1509), NCI-H841 (ATCC, cat. CRL-5845, RRID:CVCL_1595), NCI-H1618 (ATCC, cat. CRL-5879, RRID:CVCL_1480), NCI-H1876 (ATCC, cat. CRL-5902, RRID:CVCL_1503), DMS 114 (ATCC, cat. CRL-2066; RRID:CVCL_1174), NCI-H211 (ATCC, cat. CRL-5824; RRID:CVCL_1529), and SW 1271 (ATCC, cat. CRL-2177, RRID:CVCL_1716). The small cell lung cancer cell line COR-L88 was purchased from Sigma-Aldrich (cat. 92031917-1VL, RRID:CVCL_1141). The non-small cell lung cancer cell lines NCI-H226 (RRID:CVCL_1544) and NCI-H322M (RRID:CVCL_1557) were established at the NCI and grown from internal seed stocks. Pooled donor human umbilical vein endothelial cells (HUVEC, Lonza, cat. CC-2519) and human mesenchymal stem cells (hMSC, Lonza, cat. PT-2501) were purchased from Lonza (Walkersville, MD).
Cell Culture. All cells were maintained in an incubator at 37 degrees C and 5% CO2 with 95% humidity. […]

[1] = second compound 0.003 µM, first compound 0.0949 µM
[2] = second compound 0.003 µM, first compound 0.3 µM
[3] = second compound 0.003 µM, first compound 0.949 µM
[4] = second compound 0.003 µM, first compound 3 µM
[5] = second compound 0.00949 µM, first compound 0.0949 µM
[6] = second compound 0.00949 µM, first compound 0.3 µM
[7] = second compound 0.00949 µM, first compound 0.949 µM
[8] = second compound 0.00949 µM, first compound 3 µM
[9] = second compound 0.03 µM, first compound 0.0949 µM
[10] = second compound 0.03 µM, first compound 0.3 µM
[11] = second compound 0.03 µM, first compound 0.949 µM
[12] = second compound 0.03 µM, first compound 3 µM
[13] = second compound 0.0949 µM, first compound 0.0949 µM
[14] = second compound 0.0949 µM, first compound 0.3 µM
[15] = second compound 0.0949 µM, first compound 0.949 µM
[16] = second compound 0.0949 µM, first compound 3 µM
[17] = second compound 0.3 µM, first compound 0.0949 µM
[18] = second compound 0.3 µM, first compound 0.3 µM
[19] = second compound 0.3 µM, first compound 0.949 µM
[20] = second compound 0.3 µM, first compound 3 µM

Cc1sc2c(c1C)C(c1ccc(Cl)cc1)=NC(CC(=O)Nc1ccc(O)cc1)c1nnc(C)n1-2 (stereo not given) + CC[C@@]1(O)C(=O)OCc2c1cc1n(c2=O)Cc2cc3c(CN(C)C)c(O)ccc3nc2-1
IC50 (second compound 0.003 µM): > 3000 nM | IC50 (second compound 0.00949 µM): > 3000 nM | IC50 (second compound 0.03 µM): > 3000 nM | IC50 (second compound 0.0949 µM): > 3000 nM | IC50 (second compound 0.3 µM): > 3000 nM | viability, T/C (second compound 0.003 µM, first compound 0.00949 µM): 105% | viability, T/C (second compound 0.003 µM, first compound 0.03 µM): 139% | viability, T/C [1]: 132% | viability, T/C [2]: 134% | viability, T/C [3]: 95.3% | viability, T/C [4]: 76.2% | viability, T/C (second compound 0.00949 µM, first compound 0.00949 µM): 106% | viability, T/C (second compound 0.00949 µM, first compound 0.03 µM): 112% | viability, T/C [5]: 140% | viability, T/C [6]: 118% | viability, T/C [7]: 79% | viability, T/C [8]: 77.2% | viability, T/C (second compound 0.03 µM, first compound 0.00949 µM): 107% | viability, T/C (second compound 0.03 µM, first compound 0.03 µM): 127% | viability, T/C [9]: 126% | viability, T/C [10]: 103% | viability, T/C [11]: 82.2% | viability, T/C [12]: 73.7% | viability, T/C (second compound 0.0949 µM, first compound 0.00949 µM): 90.7% | viability, T/C (second compound 0.0949 µM, first compound 0.03 µM): 99.1% | viability, T/C [13]: 112% | viability, T/C [14]: 89.2% | viability, T/C [15]: 79.8% | viability, T/C [16]: 64.4% | viability, T/C (second compound 0.3 µM, first compound 0.00949 µM): 74.5% | viability, T/C (second compound 0.3 µM, first compound 0.03 µM): 73.5% | viability, T/C [17]: 90.2% | viability, T/C [18]: 80.5% | viability, T/C [19]: 71% | viability, T/C [20]: 58.1%

CC1COCCN1c1cc(-c2ccnn2C)c2ccnc(-c3ccn[nH]3)c2n1 (stereo not given) + Cn1nnc2c(C(N)=O)ncn2c1=O
IC50 (second compound 1 µM): 128 nM | IC50 (second compound 3.16 µM): 156 nM | IC50 (second compound 10 µM): 80 nM | IC50 (second compound 31.6 µM): < 31.6 nM | IC50 (second compound 100 µM): < 31.6 nM | viability, T/C (second compound 1 µM, first compound 0.0316 µM): 66.3% | viability, T/C (second compound 1 µM, first compound 0.1 µM): 54.4% | viability, T/C (second compound 1 µM, first compound 0.316 µM): 43.5% | viability, T/C (second compound 1 µM, first compound 1 µM): 37.4% | viability, T/C (second compound 1 µM, first compound 3.16 µM): 41.5% | viability, T/C (second compound 1 µM, first compound 10 µM): 48.5% | viability, T/C (second compound 3.16 µM, first compound 0.0316 µM): 63% | viability, T/C (second compound 3.16 µM, first compound 0.1 µM): 55.1% | viability, T/C (second compound 3.16 µM, first compound 0.316 µM): 42.3% | viability, T/C (second compound 3.16 µM, first compound 1 µM): 34.1% | viability, T/C (second compound 3.16 µM, first compound 3.16 µM): 37.7% | viability, T/C (second compound 3.16 µM, first compound 10 µM): 40.8% | viability, T/C (second compound 10 µM, first compound 0.0316 µM): 72.2% | viability, T/C (second compound 10 µM, first compound 0.1 µM): 44.5% | viability, T/C (second compound 10 µM, first compound 0.316 µM): 45.4% | viability, T/C (second compound 10 µM, first compound 1 µM): 37.3% | viability, T/C (second compound 10 µM, first compound 3.16 µM): 40.6% | viability, T/C (second compound 10 µM, first compound 10 µM): 50% | viability, T/C (second compound 31.6 µM, first compound 0.0316 µM): 56.1% | viability, T/C (second compound 31.6 µM, first compound 0.1 µM): 43% | viability, T/C (second compound 31.6 µM, first compound 0.316 µM): 37.1% | viability, T/C (second compound 31.6 µM, first compound 1 µM): 36.6% | viability, T/C (second compound 31.6 µM, first compound 3.16 µM): 35.9% | viability, T/C (second compound 31.6 µM, first compound 10 µM): 41.4% | viability, T/C (second compound 100 µM, first compound 0.0316 µM): 41.1% | viability, T/C (second compound 100 µM, first compound 0.1 µM): 34.8% | viability, T/C (second compound 100 µM, first compound 0.316 µM): 31.7% | viability, T/C (second compound 100 µM, first compound 1 µM): 32% | viability, T/C (second compound 100 µM, first compound 3.16 µM): 35.4% | viability, T/C (second compound 100 µM, first compound 10 µM): 40.6%

O=C(c1cc(Cc2n[nH]c(=O)c3ccccc23)ccc1F)N1CCN(C(=O)C2CC2)CC1 + CC[C@@]1(O)C(=O)OCc2c1cc1n(c2=O)Cc2cc3c(CN(C)C)c(O)ccc3nc2-1
IC50 (second compound 0.003 µM): > 30000 nM | IC50 (second compound 0.00949 µM): > 30000 nM | IC50 (second compound 0.03 µM): > 30000 nM | IC50 (second compound 0.0949 µM): > 30000 nM | IC50 (second compound 0.3 µM): < 94.9 nM | viability, T/C [1]: 77.7% | viability, T/C [2]: 78.8% | viability, T/C [3]: 79.2% | viability, T/C [4]: 87.3% | viability, T/C (second compound 0.003 µM, first compound 9.49 µM): 95.8% | viability, T/C (second compound 0.003 µM, first compound 30 µM): 78.2% | viability, T/C [5]: 85.7% | viability, T/C [6]: 73% | viability, T/C [7]: 71.6% | viability, T/C [8]: 77% | viability, T/C (second compound 0.00949 µM, first compound 9.49 µM): 66.9% | viability, T/C (second compound 0.00949 µM, first compound 30 µM): 83.5% | viability, T/C [9]: 67.5% | viability, T/C [10]: 69.7% | viability, T/C [11]: 78.4% | viability, T/C [12]: 78.5% | viability, T/C (second compound 0.03 µM, first compound 9.49 µM): 78.5% | viability, T/C (second compound 0.03 µM, first compound 30 µM): 75.4% | viability, T/C [13]: 56.4% | viability, T/C [14]: 57.6% | viability, T/C [15]: 60.5% | viability, T/C [16]: 51.4% | viability, T/C (second compound 0.0949 µM, first compound 9.49 µM): 50.5% | viability, T/C (second compound 0.0949 µM, first compound 30 µM): 61.1% | viability, T/C [17]: 42.5% | viability, T/C [18]: 48.8% | viability, T/C [19]: 45.3% | viability, T/C [20]: 49.6% | viability, T/C (second compound 0.3 µM, first compound 9.49 µM): 55.1% | viability, T/C (second compound 0.3 µM, first compound 30 µM): 46.5%
